Reference: publication PMC8279415, “Targeting Acute Myelogenous Leukemia Using Potent Human Dihydroorotate Dehydrogenase Inhibitors Based on the 2-Hydroxypyrazolo[1,5-a]pyridine Scaffold: SAR of the Biphenyl Moiety” (Journal of Medicinal Chemistry, 2021)
≈ marks a conversion by molar mass, not a printed value. Entries after “also recorded” stand apart in the source; their conditions may differ. Like-named read-outs stand apart in the source and are kept apart here.

Legend:
[1] = Protein binding in vitro (ultrafiltration); assay type: in vitro ADME; settings: male, human serum, 37 °C, read-out: protein binding (% bond) (converted)
Procedure: This was achieved via ultrafiltration using commercially available membrane systems (Centrifree ultrafiltration devices with ultracel YM-T membrane, Merck). […] 1 mL of the solution obtained in the sample reservoir of the ultrafiltration device was gently shaken in an orbital shaker at 37 °C for 1 h. […] The concentrations of the compounds in the ultrafiltrate and filtrate were determined using reverse-phase UHPLC, and the chromatographic conditions were those described above with different injection volumes: 20 μL for ultrafiltrate samples and 2 μL for filtrate samples.

recombinant hDHODH = target: T1, recombinant hDHODH (Homo sapiens, UniProt Q02127); assay: hDHODH inhibition assay (DCIP reduction); assay type: biochemical
T1 construct: made in house; host or cells: E. coli BL21DE3 PyrD
T1 sequence (Q02127 whole entry): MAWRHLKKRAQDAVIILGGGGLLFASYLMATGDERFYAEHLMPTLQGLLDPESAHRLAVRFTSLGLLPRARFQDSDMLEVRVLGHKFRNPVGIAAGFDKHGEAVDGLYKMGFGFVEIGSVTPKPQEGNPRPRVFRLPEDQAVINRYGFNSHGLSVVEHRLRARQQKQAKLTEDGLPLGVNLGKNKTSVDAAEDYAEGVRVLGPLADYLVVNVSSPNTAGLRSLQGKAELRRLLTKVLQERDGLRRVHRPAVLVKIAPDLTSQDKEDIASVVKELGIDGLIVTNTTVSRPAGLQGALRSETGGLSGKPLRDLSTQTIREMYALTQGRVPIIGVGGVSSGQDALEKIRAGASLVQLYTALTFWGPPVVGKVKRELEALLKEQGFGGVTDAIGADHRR
Procedure: BL21DE3 PyrD E. coli cells were transformed using the plasmid construct pFN2A–hDHODH (kindly given by Department of Drug Science and Technology, University of Turin, Turin, Italy). The vector produces hDHODH as an N-terminal GST-fusion protein. Cells were grown at 37 °C in LB medium supplemented with 0.1 mM flavin mononucleotide (Cayman Chemical). […] Triton X-100 was added to the lysate, to a final concentration of 1%, before centrifugation at 14 000g for 40 min at 4 °C. The clarified supernatant was incubated with DNase I for 30 min at room temperature, supplemented with 2 mM dithiothreitol (DTT), and filtered through a 0.45 μm syringe filter as previously described by Sainas et al.[18] The GST-fused enzyme was purified from the bacterial lysate using affinity chromatography on immobilized glutathione-Sepharose columns (GE- […]). The GST tag was not cleaved for further analysis. All the reagents used in the protein expression and purification were supplied by Merck/Sigma-Aldrich if not otherwise specified.
The enzymatic inhibition assay was optimized for being performed on a 96-well plate and to achieve higher throughput. For each well of the plate a total volume of 200 μL was used: 5 μL of purified GST-hDHODH; 60 μL of 2,6-dichloroindophenol (DCIP) 50 μM; 20 μL of coenzyme Q10 enzyme 100 μM; 20 μL of dihydroorotate (DHO) 500 μM; Tris-HCl, pH 8, up to a final volume of 200 μL. Inhibitory activity was assessed by monitoring the reduction of DCIP, which is associated with the oxidation of dihydroorotate as catalyzed by the DHODH enzyme. The enzyme was preincubated for 5 min at 37 °C in Tris-HCl, pH 8, with coenzyme Q10, with DCIP (50 μM), and with the compounds to be tested used at different concentrations (final DMSO concentration 0.1% v/v). The reaction was initiated by the addition of DHO (500 μM), and the absorbance kinetic reduction was monitored at λ = 650 nm using a multiplate reader (Tecan, M1000Pro). In order to assess the minimum and maximum absorbance values of the enzymatic reaction, a Min control value was obtained by measuring the absorbance without DHO. Similarly, a Max value was obtained by measuring the absorbance with DHO but no inhibitor. A blank reduction calculation was also performed by measuring the absorbance values using 180 μL of Tris-HCl and 20 μL of coenzyme Q10. The instrument was set to read the absorbance values every 10 s for a total read time of 10 min at 37 °C. […] Values are the mean ± SE of three independent experiments.

[2] = LogD7.4, shake-flask n-octanol/PBS; settings: n-octanol/PBS, pH 7.4
Procedure: The partition coefficients between n-octanol and PBS at pH 7.4 (LogD^7.4) were obtained using the shake-flask technique at room temperature. In the shake-flask experiments, 50 mM phosphate buffered saline, pH 7.4, was used as the aqueous phase. The organic (n-octanol) and aqueous phases were mutually saturated by shaking for 4 h. The compounds were solubilized in the buffered aqueous phase at the highest concentration compatible with solubility, and appropriate amounts of n-octanol were added. The two phases were shaken for about 20 min, by which time the partitioning equilibrium of solutes had been reached, and then centrifuged (10 000 rpm, 10 min). The concentration of the solutes was measured in the aqueous phase using a UV spectrophotometer (Varian Cary 50BIO); absorbance values (recorded for each compound at the wavelength of maximum absorption) were interpolated in calibration curves obtained using standard solutions of the compounds (r^2 > 0.99). Each log D value is an average of at least six measurements.

THP1 cells [3] = assay: Fixed-concentration screening of differentiation (CD14) and apoptosis (annexin V) in THP1, with or without uridine; assay type: cell-based, human
Procedure: DMSO (dimethyl sulfoxide) acts as the negative control group as it was used to solubilize hDHODH inhibitors. ∗, ∗∗, ∗∗∗ represent the statistical significance for apoptosis (respectively p < 0.05, < 0.01, and <0.001). #, ##, and ### represent the statistical significance for differentiation (respectively p < 0.05, <0.01, and <0.001). The statistical significance is calculated by comparing the compounds to DMSO.
The statistical significance is calculated by comparing the compounds to DMSO.

Jurkat cells = assay: CFSE-based cytotoxic activity assay; settings: concentration inducing cytotoxicity ≥30%, 3 days
THP1 cells [4] = assay: Annexin V apoptosis assay in THP1; settings: Homo sapiens
U937 cells [5] = assay: Annexin V apoptosis assay in U937; settings: Homo sapiens, U-937, 72 h, read-out: apoptosis EC50 U937 (CL 95%)
U937 cells [6] = assay: Differentiation assay (CD11b expression) in U937; settings: Homo sapiens, U-937, 72 h, read-out: differentiation EC50 U937 (CL 95%)
THP1 cells [7] = assay: Differentiation assay (CD14 expression) in THP1; settings: Homo sapiens
[8] = Solubility assay at pH 7.4 in PBS; assay type: physicochemical; settings: pH 7.4, 25 °C, 24 h, LOD 6 μM; for solubility at 24 h: phosphate buffered saline
Procedure: These suspensions were filtered through a PTFE 0.45 μm filter (VWR), and the solutions were chromatographically analyzed using a PerkinElmer ultrahigh performance liquid chromatography (UHPLC) instrument, equipped with a reverse-phase (RP) C18 Phenomenex column (2.1 mm × 100 mm, 1.7 μm particle size). […] The flow rate was 0.5 mL/min. Standard injection volumes were either 2 or 4 μL for poorly soluble compounds. The detection system was a PerkinElmer diode array detector. The wavelengths that were monitored for each compound were defined according to the compound’s own absorption spectrum. Solubility, expressed as μM concentration of the saturated solution, was calculated via interpolation with external calibration curves that were obtained with solutions of each compound in acetonitrile.

[9] = parameters: method as in doi:10.1158/1538-7445.AM2019-2; settings: cited from earlier work
[10] = cited from earlier work
[11] = cited from earlier work; remark: listed apart in the source
[12] = In vitro metabolic profile in rat-liver microsomes; assay type: in vitro ADME
Procedure: SyGMa (systematic generation of potential metabolites) software, a tool that lists predicted metabolites with associated empirical probability scores, was used to identify putative metabolites, which were then investigated by analyzing samples with liquid chromatography coupled to high-resolution mass spectrometry (HPLC–HRMS). […] The full-scan MS data acquired for all of the samples were analyzed to find the m/z values of the predicted molecular structures. In order to exclude interfering signals, the results obtained were compared to blank samples and common background peaks were not considered.
Rat-liver microsomes (Sprague-Dawley, male, Sigma-Aldrich; 20 mg/mL protein concentration) were incubated with the candidate compound solution (5 μM final concentration, with 1% DMSO) and Tris buffer (0.1 M, pH = 7.4). The regenerating system, which slowly generated coenzyme units over the incubation time, leading to a better reproduction of in vivo behavior, was composed of MgCl2 (3.3 mM), NADP^+ (1.3 mM), Glu6P (3.5 mM), and Glu6P dehydrogenase (0.5 U/mL).
The incubation time started with the addition of the microsomes suspension (0.5 mg/mL).
Metabolic reactions were stopped by adding 100 μL of cooled acetonitrile to the 100 μL sample of the incubation mixture. Samples were centrifuged to provoke protein precipitation, and the supernatants were immediately stocked at −80 °C, until analysis, to prevent the potential degradation of unstable products.
The products of in vitro metabolism were identified using a high-resolution mass spectrometer (Q-Exactive Orbitrap, Thermo Scientific) coupled to an HPLC instrument (1200 system Agilent). All analytes were separated on an Ascentis C18 column (150 mm × 2.1 mm, 5 μm particle size) maintained at 35 °C. The elution mixture was composed of solvent A (0.1% formic acid in water for positive ionization mode and 0.05% acetic acid for negative ionization mode) and solvent B (acetonitrile). […] MS2-DIA scans were acquired at R = 17 500 and with variable collision energies ranging from 30 to 45, depending on the m/z of the parent ion.

[13] = mean ± SE of three independent experiments, read-out: hDHODH, IC50 ± SE
[14] = supplementary CSV, values differ from Table 2, read-out: hDHODH IC50 ± SE (supplement CSV)
[15] = THP-1, 72 h, read-out: apoptosis EC50 THP1 (CL 95%)
[16] = THP-1, read-out: Apoptosis EC50 (C.L.95%) (supplement CSV)
[17] = THP-1, 72 h, read-out: differentiation EC50 THP1 (CL 95%)
[18] = THP-1, read-out: Differentiation EC50 (C.L.95%) (supplement CSV)

Row | SMILES | fraction unbound at 1 h, 50 µM [1] | IC50 (recombinant hDHODH; [13]) | IC50 (recombinant hDHODH; [14]) | logD [2] | cytoxicity Jurkat (effect ≥30% ± SD) (Jurkat cells) | EC50 (THP1 cells [4]; [15]) | EC50 (THP1 cells [4]; [16]) | EC50 (U937 cells [5]) | EC50 (U937 cells [6]) | EC50 (THP1 cells [7]; [17]) | EC50 (THP1 cells [7]; [18]) | solubility at 24 h [8] | activity in cells (differentiation and apoptosis) (THP1 cells [3]; THP1, 0.1 μM) | further results
1 | Cc1c(-c2ccc(-c3ccccc3F)cc2)nc2ccc(F)cc2c1C(=O)O [Brequinar, reference compound] | 0.0117 | – | – | – | – | – | – | – | – | – | – | – | – | –
2 | O=C(Nc1c(F)c(F)c(-c2cccnc2)c(F)c1F)c1c(O)nn2ccccc12 [Compound 8, 2-Hydroxy-N-(2,3,5,6-tetrafluoro-4-(pyridin-3-yl)phenyl)pyrazolo[1,5-a]pyridine-3-carboxamide] | 0.0042 | 6.23 ± 0.63 nM | 7.19 ± 0.19 nM | 0.98 ± 0.03 | – | – | – | – | – | – | – | – | – | activity in cells (differentiation and apoptosis) (THP1 cells [3]; THP1, 1 μM): basically inactive
3 | COc1cccc(-c2c(F)c(F)c(NC(=O)c3c(O)nn4ccccc34)c(F)c2F)c1 [Compound 16, 2-Hydroxy-N-(2,3,5,6-tetrafluoro-3′-methoxy-[1,1′-biphenyl]-4-yl)pyrazolo[1,5-a]pyridine-3-carboxamide] | 0.0005 | – | 1.47 ± 0.33 nM | – | 68 ± 7 µM | 37.9 nM | 29.6 nM | 42.8 nM | 31.1 nM | 31.2 nM | 26.9 nM | 74.3 µM (≈ 32 µg/mL) | highly active | –
4 | O=C(Nc1c(F)c(F)c(-c2cccc(F)c2)c(F)c1F)c1c(O)nn2ccccc12 [Compound 11, 2-Hydroxy-N-(2,3,3′,5,6-pentafluoro-[1,1′-biphenyl]-4-yl)pyrazolo[1,5-a]pyridine-3-carboxamide] | 0.0004 | 2.03 ± 0.44 nM | 2.37 ± 0.35 nM | 2.09 ± 0.04 | 39 ± 3 µM | 250 nM | 222 nM | 68.2 nM | 40.7 nM | 67.6 nM | 58.9 nM | < 6 µM | highly active | solubility in PBS [8]: <LOD
5 | CCn1c(CO)nn(-c2cc(O[C@@H](C)C(F)(F)F)c(C(=O)Nc3c(F)cccc3Cl)cc2F)c1=O [BAY-2402234, reference compound] | – | – | – | – | 36 ± 4 µM | 3.4 nM | – | – | – | 2.4 nM | – | – | – | solubility in PBS [9]: <1[31] μM; LogD^7.4 [10]: 2.7[27]
6 | COc1cccc(-c2cc(F)c(Nc3ncccc3C(=O)O)c(F)c2)c1 [ASLAN003] | – | – | – | – | – | – | – | – | – | – | – | – | – | protein binding (% bond) [11]: >99[25] %
7 | O=C(Nc1c(F)c(F)c(-c2cccc(OC(F)(F)F)c2)c(F)c1F)c1c(O)nn2ccccc12 [Compound 15, 2-Hydroxy-N-(2,3,5,6-tetrafluoro-3′-(trifluoromethoxy)-[1,1′-biphenyl]-4-yl)pyrazolo[1,5-a]pyridine-3-carboxamide] | – | – | 2.62 ± 0.79 nM | 3.27 ± 0.19 | >100 µM | 39.6 nM | 32.6 nM | 35.3 nM | 8.6 nM | 31.5 nM | 28 nM | 8.1 µM (≈ 3.93 µg/mL) | highly active | metabolites identified in sample C ([12]; active rat-liver microsomes and regenerating system, HPLC-HRMS): did not identify appreciable concentration of metabolites; parent compound recovered ([12]; rat-liver microsomes with regenerating system, 2 h incubation): 100%; metabolic stability ([12]; rat-liver microsomes, 2 h): metabolically stable; also recorded: good metabolic stability
8 | O=C(Nc1c(F)c(F)c(-c2cccc(C(F)(F)F)c2)c(F)c1F)c1c(O)nn2ccccc12 [Compound 13, 2-Hydroxy-N-(2,3,5,6-tetrafluoro-3′-(trifluoromethyl)-[1,1′-biphenyl]-4-yl)pyrazolo[1,5-a]pyridine-3-carboxamide] | 0.0006 | 6.34 ± 0.63 nM | 3.01 ± 0.37 nM | 2.69 ± 0.03 | >100 µM | 51.1 nM | 42.9 nM | 60 nM | 34.2 nM | 38.3 nM | 32 nM | < 6 µM | highly active | solubility in PBS [8]: <LOD
